Assay results taken from PMC4281220, “Antibacterial Activity of Novel Cationic Peptides against Clinical Isolates of Multi-Drug Resistant Staphylococcus pseudintermedius from Infected Dogs” (PLoS ONE, 2014).
Converted amounts (≈) assume the structure as drawn. Where two headings read alike, the source gives them in different places. Non-standard residues stand in square brackets, D forms with d. Residues, ends and D or L forms follow the SMILES beside them.

Columns and labels:
SP3 [1] = test: Bacterial membrane permeability (propidium iodide fluorescence); type: cell-based, Staphylococcus pseudintermedius; settings: SP3, 5X MIC, 10 µM propidium iodide, 30 minutes; in comparison to (KFF)3K, WR-12 and penetratin
Protocol: Bacterial membrane damage was assessed by fluorescence change of propidium iodide dye as described previously. Briefly, SP3 was grown in MHB to logarithmic phase of growth then diluted to OD600≈0.25. Propidium iodide was mixed with bacteria to a final concentration of 10 µM. […] The percentage of membrane permeabilization was calculated as the percent of fluorescent intensity of peptide-treated samples with respect to fluorescence intensity of propidium iodide-loaded, peptide untreated samples.

[2] = system: S. pseudintermedius strains; type: cell-based, Staphylococcus pseudintermedius; settings: for GM MIC S. pseudintermedius: 24 h
Protocol: The broth microdilution technique was used to determine the minimum inhibitory concentrations (MIC) of peptides and antibiotics in MHB in accordance with the Clinical and Laboratory Standards Institute (CLSI) guidelines. Peptides were dissolved in sterile distilled water containing 0.02% acetic acid. MIC assays were carried out with an initial bacterial inoculum of 5×10^5 colony forming unit (CFU/ml). Peptides and antibiotics were added to Polystyrene 96 well plates (CytoOne, CC7672-7596) at desired concentrations and plates were incubated for 24 hr at 37°C. MIC was defined as the lowest concentration of peptide which inhibited the visible growth of bacteria. MIC was done in triplicates and the highest value was reported.
(§1) Untreated cells were used as a negative control.

[3] = system: methicillin resistant Staphylococcus pseudintermedius (MRSP) strains
Protocol: (§2) Forty isolates of S. pseudintermedius (30 MSSP and 10 MRSP) identified at the Indiana Animal Disease Diagnostic laboratory from specimens collected from dogs admitted to the small animal teaching hospital at Purdue University were included in the study (Tables 2 and 3). […] Vitek identification of S. pseudintermedius was confirmed by a positive coagulase test. Antimicrobial susceptibility was determined by broth microdilution using the SensiTitre (Trek).
(§3) The broth microdilution technique was used to determine the minimum inhibitory concentrations (MIC) of peptides and antibiotics in MHB in accordance with the Clinical and Laboratory Standards Institute (CLSI) guidelines. Peptides were dissolved in sterile distilled water containing 0.02% acetic acid. […] MIC was defined as the lowest concentration of peptide which inhibited the visible growth of bacteria. MIC was done in triplicates and the highest value was reported.

[4] = system: methicillin sensitive Staphylococcus pseudintermedius (MSSP) strains
Protocol: as §2, §3

[5] = system: human keratinocyte (HaCat); test: Cytotoxicity, MTS assay, HaCat; type: cell-based; settings: for IC50: 24 h
Text: as §1

[6] = system: macrophage-like cell line (J774A.1); test: Cytotoxicity, MTS assay, J774A.1; type: cell-based
SP3 [7] = test: Growth kinetics (culture turbidity, OD600); type: cell-based, Staphylococcus pseudintermedius; settings: SP3, 5 X MIC, MHB, OD600, within the same time frame (7 hours)
Protocol: The turbidity of bacterial culture after exposure to peptides was measured as described previously. Briefly, logarithmic growth of SP 3 was diluted in MHB to reach OD600≈0.25. One mL of diluted bacteria was added to a plastic cuvette (light path 1 cm). Peptides and antibiotics were added to cuvettes at a concentration equivalent to 5 X MIC as determined in antibacterial assays above. Cuvettes were incubated aerobically at 37°C. At specific time points, OD was measured at 600 nm wavelength by spectrophotometer. Cuvettes containing MHB without bacteria and with the same concentrations of peptide or antibiotic served as blanks. Nisin at 5 X MIC and untreated bacteria were used as positive and negative controls, respectively. The assay was repeated twice and the average was reported.

[8] = system: mammalian or microbial proteases; settings: effect of the D-amino acids substitution; cited from earlier work
Text: WR-12 is a broad-spectrum AMP and consists exclusively of arginine and tryptophan, arranged to form idealized amphipathic helices. […] Additionally, the D-amino acids ...

[9] = system: mammalian cells (J774A.1 and HaCat); test: Cytotoxicity, MTS assay, statement for both cell lines; settings: 24 hours
Protocol: Peptides were assayed at different concentrations against macrophage-like cell line (J774A.1) and human keratinocyte (HaCat) to determine the potential toxic effect in vitro. […] Untreated cells were used as a negative control. […] After incubation, the cells were washed three times with PBS and the media in each well were replaced with 100 µL of DMEM media and 20 µL of assay reagent, MTS 3-(4,5-dimethylthiazol-2-yl)-5-(3-carboxymethoxyphenyl)-2-(4-sulfophenyl)-2H-tetrazolium) (Promega, Madison, WI, USA). The cells were incubated further for 4 h at 37°C. Corrected absorbance readings (actual absorbance readings for each treatment subtracted from background absorbance) were taken using a kinetic ELISA microplate reader (Molecular Devices, Sunnyvale, CA, USA). Cell viability was expressed as percentage of absorbance in comparison to negative control, untreated cells.
Cytotoxicity data were subjected to statistical analysis using GraphPad Prism 6.0 (GraphPad Software, La Jolla, CA). Cytotoxicity data were analyzed using one-way ANOVA, with post hoc Tukey's multiple comparisons test. P-values of <0.01 were considered significant.

[10] = system: Staphylococcus pseudintermedius (SP3); type: cell-based
Protocol: The synergistic effect between peptides and antimicrobial agents was determined by the combination assay as described previously. Peptide MICs against SP3 were determined in triplicate. […] Additive was defined as an FIC index of 1. Antagonism was defined as an FIC index of >4.

MRSP (SP3) = test: Time kill assay; type: cell-based, Staphylococcus pseudintermedius; settings: SP3, 5X MIC, MHB
Protocol: One strain of MRSP (SP3) was grown overnight in MHB, then diluted in fresh MHB and incubated for 2 hr until logarithmic growth phase was achieved. Then bacteria were centrifuged and washed twice with phosphate buffered saline (PBS) and adjusted to ∼5×10^5 CFU/ml in MHB. […] Aliquots at specified time points were taken, serially diluted in PBS and plated in triplicate on MHA. CFUs were counted after incubation of plates for 24 hr at 37°C.

[11] = system: S. pseudintermedius (SP6); type: cell-based, Staphylococcus pseudintermedius; settings: SP6, serial passages at 1/2 X MIC
Text: Results were expressed as the ratio of MIC value after each passage compared to the initial MIC value.

[12] = compound serially diluted in the presence of (KFF)3K fixed at one-quarter of its MIC
[13] = compound serially diluted in the presence of IK8 “D isoform” fixed at one-quarter of its MIC
[14] = compound serially diluted in the presence of Penetratin fixed at one-quarter of its MIC
[15] = compound serially diluted in the presence of RR fixed at one-quarter of its MIC
[16] = compound serially diluted in the presence of RRIKA fixed at one-quarter of its MIC
[17] = compound serially diluted in the presence of WR-12 fixed at one-quarter of its MIC

| Molecule | GM MIC S. pseudintermedius [2] [µM] | MIC50 [3] [µM] | MIC90 [3] [µM] | MIC50 [4] [µM] | MIC90 [4] [µM] | IC50 [5] [µM] | IC50 ([6]; 24 h) [µM] | TI (Therapeutic index) J774A.1 ([6]; 24 h) | other results |
| --- | --- | --- | --- | --- | --- | --- | --- | --- | --- |
| Nisin | – | – | – | – | – | – | – | – | membrane perturbation, propidium iodide fluorescence (comparison in words) (SP3 [1]): faster and more potent at membrane perturbation |
| N=C(N)NCCC[C@H](NC(=O)[C@H](CCCNC(=N)N)NC(=O)[C@H](Cc1c[nH]c2ccccc12)NC(=O)[C@H](Cc1c[nH]c2ccccc12)NC(=O)[C@H](CCCNC(=N)N)NC(=O)[C@H](CCCNC(=N)N)NC(=O)[C@H](Cc1c[nH]c2ccccc12)NC(=O)[C@H](Cc1c[nH]c2ccccc12)NC(=O)[C@H](CCCNC(=N)N)NC(=O)[C@H](Cc1c[nH]c2ccccc12)NC(=O)[C@H](Cc1c[nH]c2ccccc12)NC(=O)[C@@H](N)CCCNC(=N)N)C(=O)O [WR-12] (H-RWWRWWRRWWRR-OH) | 1.5 | 0.5 (≈ 1.04 µg/mL) | 2 (≈ 4.14 µg/mL) | 1 (≈ 2.07 µg/mL) | 2 (≈ 4.14 µg/mL) | 128 | 128 | 85.3/85.3 | – |
| O=C(O)c1cn(C2CC2)c2cc(N3CCNCC3)c(F)cc2c1=O [Ciprofloxacin, ciprofloxacin] | – | – | – | – | – | – | – | – | effect on culture turbidity (SP3 [7]): did not reduce the culture turbidity |
| NCCCC[C@H](NC(=O)[C@H](Cc1ccccc1)NC(=O)[C@H](Cc1ccccc1)NC(=O)[C@H](CCCCN)NC(=O)[C@H](Cc1ccccc1)NC(=O)[C@H](Cc1ccccc1)NC(=O)[C@H](CCCCN)NC(=O)[C@H](Cc1ccccc1)NC(=O)[C@H](Cc1ccccc1)NC(=O)[C@@H](N)CCCCN)C(N)=O [(KFF)3K] (H-KFFKFFKFFK-NH2) | 7.75 | 4 (≈ 5.65 µg/mL) | 8 (≈ 11.3 µg/mL) | 8 (≈ 11.3 µg/mL) | 16 (≈ 22.6 µg/mL) | > 256 | 256 | 33/>33 | – |
| CC[C@H](C)[C@H](NC(=O)CN)C(=O)NCC(=O)N[C@@H](C)C(=O)N[C@H](C(=O)N[C@@H](CC(C)C)C(=O)N[C@@H](CCCCN)C(=O)N[C@H](C(=O)N[C@@H](CC(C)C)C(=O)N[C@H](C(=O)N[C@H](C(=O)NCC(=O)N[C@@H](CC(C)C)C(=O)N1CCC[C@H]1C(=O)N[C@@H](C)C(=O)N[C@@H](CC(C)C)C(=O)N[C@H](C(=O)N[C@@H](CO)C(=O)N[C@@H](Cc1c[nH]c2ccccc12)C(=O)N[C@H](C(=O)N[C@@H](CCCCN)C(=O)N[C@@H](CCCNC(=N)N)C(=O)N[C@@H](CCCCN)C(=O)N[C@@H](CCCNC(=N)N)C(=O)N[C@@H](CCC(N)=O)C(=O)N[C@@H](CCC(N)=O)C(N)=O)[C@@H](C)CC)[C@@H](C)CC)[C@@H](C)O)[C@@H](C)O)C(C)C)C(C)C [Melittin, melittin, reference compound] | – | – | – | – | – | – | – | – | MIC ([2]; MIC of the melittin, strain not stated): 5 µM; IC50 ([6]; MTS assay, 24 hours treatment, 8 to 256 µM, DMEM 10% FBS, concentration that inhibits 50% of cells, read-out: IC50 J774A.1): 2 µM; concentration toxic to J774A.1 ([6]; MTS assay, positive control, 24 hours, P<0.01): 5 µM |
| CC[C@@H](C)[C@@H](N)C(=O)N[C@H](CCCNC(=N)N)C(=O)N[C@@H](C(=O)N[C@H](CCCCN)C(=O)N[C@@H](C(=O)N[C@H](CCCNC(=N)N)C(=O)N[C@@H](C(=O)N[C@H](CCCCN)C(=O)O)[C@H](C)CC)[C@H](C)CC)[C@H](C)CC [IK8 “D isoform”] (H-[dI][dR][dI][dK][dI][dR][dI][dK]-OH) | 5 | 4 (≈ 4.16 µg/mL) | 4 (≈ 4.16 µg/mL) | 4 (≈ 4.16 µg/mL) | 8 (≈ 8.32 µg/mL) | > 256 | > 256 | >51.2/>51.2 | proteolytic degradation by mammalian or microbial proteases [8]: prevented proteolytic degradation |
| CC[C@H](C)[C@H](NC(=O)[C@H](CCCNC(=N)N)NC(=O)[C@H](CCCNC(=N)N)NC(=O)[C@H](CC(C)C)NC(=O)[C@H](Cc1c[nH]c2ccccc12)NC(=O)[C@H](C)NC(=O)[C@H](CCCCN)NC(=O)[C@@H](NC(=O)[C@H](CCCNC(=N)N)NC(=O)[C@H](CCCNC(=N)N)NC(=O)[C@H](CC(C)C)NC(=O)[C@@H](N)Cc1c[nH]c2ccccc12)[C@@H](C)CC)C(=O)N[C@@H](CCCCN)C(=O)N[C@@H](C)C(=O)O [RRIKA] | 1.15 | 1 (≈ 1.87 µg/mL) | 1 (≈ 1.87 µg/mL) | 1 (≈ 1.87 µg/mL) | 2 (≈ 3.73 µg/mL) | 128 | 64 | 55.6 | TI (Therapeutic index) HaCat ([5]; ratio of the IC50 over the geometric mean MIC value): 111.2 |
| CC[C@H](C)[C@H](NC(=O)[C@H](CCCNC(=N)N)NC(=O)[C@H](CCCNC(=N)N)NC(=O)[C@H](CC(C)C)NC(=O)[C@@H](N)Cc1c[nH]c2ccccc12)C(=O)N[C@@H](CCCCN)C(=O)N[C@@H](C)C(=O)N[C@@H](Cc1c[nH]c2ccccc12)C(=O)N[C@@H](CC(C)C)C(=O)N[C@@H](CCCNC(=N)N)C(=O)N[C@@H](CCCNC(=N)N)C(=O)O [RR] (H-WLRRIKAWLRR-OH) | – | – | – | – | – | – | – | – | concentration up to which not toxic to mammalian cells [9]: up to 64 µM |
| CNC(C)C1CCC(N)C(OC2C(N)CC(N)C(OC3OCC(C)(O)C(NC)C3O)C2O)O1 (stereo not shown) [Gentamicin] | – | – | – | – | – | – | – | – | FIC index [10, 12]: 0.26; FIC index [10, 13]: 1; FIC index [10, 14]: 1; FIC index [10, 15]: 0.75; FIC index [10, 16]: 1; FIC index [10, 17]: 0.75 |
| NCC[C@H](O)C(=O)N[C@@H]1C[C@H](N)[C@@H](O[C@H]2O[C@H](CN)[C@@H](O)[C@H](O)[C@H]2O)[C@H](O)[C@H]1O[C@H]1O[C@H](CO)[C@@H](O)[C@H](N)[C@H]1O [Amikacin, amikacin hydrate] | – | – | – | – | – | – | – | – | log10 reduction after 12 hours incubation (MRSP (SP3)): 3 log10; log10 reduction within 3 hours (MRSP (SP3); 37°C): less than one log10 reduction; time after which bactericidal activity was demonstrated (MRSP (SP3); data not shown): 12 h; passage at which shift (doubling) of the MIC began [11]: 4 passage; fold increase in the MIC by passage 10 ([11]; ratio to the initial MIC): 32 fold; effect on culture turbidity (SP3 [7]): did not reduce the culture turbidity; FIC index [10, 12]: 0.37; FIC index [10, 13]: 0.75; FIC index [10, 14]: 0.75; FIC index [10, 15]: 0.75; FIC index [10, 16]: 1; FIC index [10, 17]: 1 |
